According to US5714142A, “Method and compositions for increasing the serum half-life of pharmacologically active agents by binding to transthyretin-selective ligands” (priority 1996, dated 1998):
Read-outs that look alike come from different tables or passages of the source.

Tests used:
TTR (transthyretin) = TTR (transthyretin) (Homo sapiens, UniProt P02766); assay: percent inhibition of radiolabelled T4 binding to TTR (procedure of R. Somack et al.); details: for inhibition at 10 µM: read-out: ~% T4 (percent inhibition of radiolabelled T4 binding to TTR); for inhibition at 1 µM: [I] 1 uM
Source text: Results are set forth in the following table, wherein "%T4 " represents the percent inhibition of radiolabelled T4 binding to TTR".

[1] = cited from earlier work
human astrocytoma cells = details: C. M. Divino et al. 1990; cited from earlier work

Compound | inhibition at 10 µM (TTR (transthyretin); [I] 10 uM) | also measured
CC(C)(C)OC(=O)NCCCCCCNC(=O)Cc1cc(I)c(O)c(I)c1 | ~40% | –
NCCOCCOCCNC(=O)Cc1cc(I)c(O)c(I)c1 | ~25% | –
NCCCCCCNC(=O)Cc1cc(I)c(O)c(I)c1 | ~15% | –
O=C(O)c1ccc(-c2cc(I)c(O)c(I)c2)cc1 | – | inhibition at 1 µM (TTR (transthyretin)): ~80%
OCc1cc(I)c(O)c(I)c1 | – | inhibition at 1 µM (TTR (transthyretin)): ~70%
Oc1c(I)cc(I)cc1I | – | inhibition at 10 µM (TTR (transthyretin)): ~90%
O=C(O)Cc1cc(I)c(Oc2cc(I)c(O)c(I)c2)c(I)c1 | ~90% | –
O=C(Cc1cc(I)c(O)c(I)c1)OCC#CCO | ~90% | –
OCCc1cc(I)c(O)c(I)c1 | ~85% | –
O=C(O)CCc1cc(I)c(O)c(I)c1 | ~80% | –
O=C(O)Cc1cc(I)c(O)c(I)c1 | ~70% | –
CC(C)(C)OC(=O)NCCOCCOCCNC(=O)Cc1cc(I)c(O)c(I)c1 | ~45% | –
superoxide dismutase | – | half-life ([1]; unconjugated, G. D. Mao et al. 1989): five
transthyretin | – | t1/2 ([1]; up to about): up to two; binding to cell sites (human astrocytoma cells): binds to specific high affinity sites on human astrocytoma cells
